The text below walks through data of patent US20020173640A1, “ADAM polynucleotides, polypeptides, and antibodies” (Human Genome Sciences, Inc., priority 1999, published 2002).

The test system of test [1] is protease inhibitor-resistant viruses. The note with it: cited from earlier work.
For test [2], the system named is lamivudine-resistant isolates. The conditions noted are these: cited from earlier work.
Test [3] has as its system M24 cells. The note with it: murine metastasis model; cited from earlier work.
The test system of test [4] is human metastatic melanoma (M24 cells). The conditions noted are these: cited from earlier work.
The test system of test [5] is rat tail tendon type I gelatin. The test can be described thus: Substrate specificity: gelatin. In kind it is biochemical. Here is the method: (§1) The following assay(s) are useful in determining the presence of protease activity. Gelatin and casein zymography are performed essentially as described (Heusen et al., Anal. Biochem., 102:196-202 (1980); Wilson et al., Journal of Urology, 149:653-658 (1993)). Samples are run on 10% polyacryamide/0.1% SDS gels containing 1% gelain orcasein, soaked in 2.5% triton at room temperature for 1 hour, and in 0.1M glycine, pH 8.3 at 37° C. 5 to 16 hours. After staining in amido black areas of proteolysis apear as clear areas agains the blue-black background. Trypsin (Sigma T8642) is used as a positive control.

Test [6] relates to alpha-2-macroglobulin (α2-M). The test can be described thus: Cleavage of α2-M by hADAM-19. The class given is biochemical, Bovine. The note with it: 37° C.; new bands of 105 kDa and 72 kDa; dose-dependent. The protocol:
The time course of hydrolysis of α2-M by hADAM-19 was examined. Ten μl of purified hADAM-19 (50 μg/ml) were mixed with 23.8 μl α2-M (0.2 unit)ml) in 66.24 μl 1× assay buffer (50 mM HEPES, pH 7.5, 0.2 M NaCl, 10 mM CaCl2, 25 μM ZnCl2 and 0.05% Brij-35) and incubated at 37° C. for 1-5 days. Trypsin was used as a positive control. The molar ratios between α2-M and hADAM-19 or trypsin were from 1:1 to 5:1. The samples were collected and boiled in SDS-PAGE sample buffer containing 5% 2-mercaptoethanol for 5-min, then loaded onto an 8% SDS-polyacrylamide gel. After electrophoresis the proteins were visualized by silver staining method.

Test [7] has as its system alpha-2-macroglobulin (α2-M). The test is described as follows: Complex formation between hADAM-19 and α2-M (Western blot, anti-Flag). The class given is binding, Bovine. The note with it: 37° C. for 16 h; Western blot with anti-Flag Ab. Here is the method:
Complex Formation Between hADAM-19 and α2-M Human ADAM-19 transient transfected supernatant was concentrated by about 10-fold in a 0.4 ml Ultrafree MC filter unit (Low Binding Regenerated Cellulose membrane, MW cutoff 10 kDa) from Millipore. 40 μl of the concentrated sample were mixed with TBSZ buffer (50 mM Tris.HCl, 150 mM NaCl, 5 μM ZnCl2) with or without α2-M protein (Roche Molecular Biochemicals, final concentration, 1 unit/ml) in a total 50 μl reaction volume and incubated at 37° C. for 16 h. The samples were boiled in Lamini sample buffer and loaded on a 4-12% percent Tris-Giycine gel. In the case of purified hADAM-19 protein, one to 10 μl of purified protein were incubated with α2-M protein in TBSZ buffer in a total of 50 μl reaction volume and incubated at 37° C. for 16 h. Anti-Flag M2 antibody (Ab), at 1 μg/ml concentration (Sigma), was used as primary Ab. Peroxidase-labelled goat anti-mouse Ab from Amersham Pharmacia Biotech was used as secondary Ab at 1:2000 dilution.

Test [8] relates to bovine casein. The test can be described thus: Substrate specificity: casein. The class given is biochemical. Here is the method:
as §1

For test [9], the system named is alpha-2 macroglobulin. The test is described as follows: metal-dependant proteolysis of alpha-2 macroglobulin. The class given is biochemical. The note with it: see Example 19.

On to `Cc1ccccc1CNC(=O)[C@H]1N(C(=O)[C@@H](O)[C@H](Cc2ccccc2)NC(=O)c2cccc(O)c2C)CSC1(C)C` [AG-1776], for which the “in vitro activity against protease inhibitor-resistant viruses” value in [1] was “in vitro activity against protease inhibitor-resistant viruses”.

`Nc1ccn([C@H]2CO[C@@H](CO)S2)c(=O)n1` [dOTC]: the “activity against lamivudine-resistant isolates” value in test [2] is recorded as “retains activity against a substantial proportion of lamivudine-resistant isolates”.

With contortrostatin, the “inhibition of lung colonization of M24 cells” value in test [3] is on record as “inhibits lung colonization”. Moreover, in [4], the “inhibition of M24 cell adhesion to laminin” value is “not laminin”; the “inhibition of M24 cell adhesion to type I collagen, vitronectin, and fibronection” value was “inhibit”.

B1: hADAM-19: Flag-tagged hADAM-19 protein (residues 26-701 of SEQ ID NO: 9) purified from transfected 293T cells (protein, listed as Homo sapiens)
chain: REPGWTRGSEEGSPKLQHELIIPQWKTSESPVREKHPLKAELRVMAEGRELILDLEKNEQLFAPSYTETHYTSSGNPQTTTRKLEDHCFYHGTVRETELSSVTLSTCRGIRGLITVSSNLSYVIEPLPDSKGQHLIYRSEHLKPPPGNCGFEHSKPTTRDWALQFTQQTKKRPRRMKREDLNSMKYVELYLVADYLEFQKNRRDQDATKHKLIEIANYVDKFYRSLNIRIALVGLEVWTHGNMCEVSENPYSTLWSFLSWRRKLLAQKYHDNAQLITGMSFHGTTIGLAPLMAMCSVYQSGGVNMDHSENAIGVAATMAHEMGHNFGMTHDSADCCSASAADGGCIMAAATGHPFPKVFNGCNRRELDRYLQSGGGMCLSNMPDTRMLYGGRRCGNGYLEDGEECDCGEEEECNNPCCNASNCTLRPGAECAHGSCCHQCKLLAPGTLCREQARQCDLPEFCTGKSPHCPTNFYQMDGTPCEGGQAYCYNGMCLTYQEQCQQLWGPGARPAPDLCFEKVNVAGDTFGNCGKDMNGEHRKCNMRDAKCGKIQCQSSEARPLESNAVPIDTTIIMNGRQIQCRGTHVYRGPEEEGDMLDPGLVMTGTKCGYNHICFEGQCRNTSFFETEGCGKKCNGHGVCNNNQNCHCLPGWAPPFCNTPGHGGSIDSGPMPPESVG
modifications: Flag tag
Consider B1, for which the “dissolution of rat tail tendon type I gelatin” value in [5] is “not dissolved”. For the same molecule, the “cleavage of α2-M” value in test [6] is “cleaved α2-M”. Besides, the “complex formation with α2-M” value in [7] is “formed a complex of 170 kDa band with α2-M”. Further, in test [8], the “dissolution of bovine casein” value was “not dissolved”.

B2: Gene NO: 1: human ADAM polypeptide encoded by cDNA clone HDPDH32, homologous to murine metalloproteinase-disintegrin meltrin beta (protein, listed as Homo sapiens)
chain: MPGGAGAARLCLLAFALQPLRPRAAREPGWTRGSEEGSPKLQHELIIPQWKTSESPVREKHPLKAELRVMAEGRELILDLEKNEQLFAPSYTETHYTSSGNPQTTTRKLEDHCFYHGTVRETELSSVTLSTCRGIRGLITVSSNLSYVIEPLPDSKGQHLIYRSEHLKPPPGNCGFEHSKPTTRDWALQFTQQTKKRPRRMKREDLNSMKYVELYLVADYLEFQKNRRDQDATKHKLIEIANYVDKFYRSLNIRIALVGLEVWTHGNMCEVSENPYSTLWSFLSWRRKLLAQKYHDNAQLITGMSFHGTTIGLAPLMAMCSVYQSGGVNMDHSENAIGVAATMAHEMGHNFGMTHDSADCCSASAADGGCIMAAATGHPFPKVFNGCNRRELDRYLQSGGGMCLSNMPDTRMLYGGRRCGNGYLEDGEECDCGEEEECNNPCCNASNCTLRPGAECAHGSCCHQCKLLAPGTLCREQARQCDLPEFCTGKSPHCPTNFYQMDGTPCEGGQAYCYNGMCLTYQEQCQQLWGPGARPAPDLCFEKVNVAGDTFGNCGKDMNGEHRKCNMRDAKCGKIQCQSSEARPLESNAVPIDTTIIMNGRQIQCRGTHVYRGPEEEGDMLDPGLVMTGTKCGYNHICFEGQCRNTSFFETEGCGKKCNGHGVCNNNQNCHCLPGWAPPFCNTPGHGGSIDSGPMPPESVGPVVAGVLVAILVLAVLMLMYYCCRQNNKLGQLKPSALPSKLRQQFSCPFRVSQNSGTGHANPTFKLQTPQGKRKVINTPEILRKPSQPPPRPPPDYLRGGSPPAPLPAHLSRAARNSPGPGSQIERTESSRRPPPSRPIPPAPNCIVSQDFSRPRPPQKALPANPVPGRRSLPRPGGASPLRPPGAGPQQSRPLAALAPKFPEYRSQRAGGMISSKI
As for B2, the “metal-dependant proteolysis of alpha-2 macroglobulin” value in test [9] is “displayed metal-dependant proteolysis of alpha-2 macroglobulin”.
